Data as given in patent US20080200439A1, “Methods and compositions for modulating BK channel activity and vasodilation” (University of Tennessee Research Foundation, priority 2006, published 2008).
Where “and” joins values, the source holds several entries; their conditions need not be identical. Equal entries are not always repeated. Where two headings read alike, the source gives them in different places.

Columns and labels:
cbv1+β1 channels = cbv1+β1 channels (UniProt Q16558+Q62976); assay: Patch-clamp of heteromeric cbv1+β1 channels expressed in Xenopus oocytes; type: cell-based, rat
Chain of cbv1+β1 channels (Q62976 1-1148 isoform Q62976-2): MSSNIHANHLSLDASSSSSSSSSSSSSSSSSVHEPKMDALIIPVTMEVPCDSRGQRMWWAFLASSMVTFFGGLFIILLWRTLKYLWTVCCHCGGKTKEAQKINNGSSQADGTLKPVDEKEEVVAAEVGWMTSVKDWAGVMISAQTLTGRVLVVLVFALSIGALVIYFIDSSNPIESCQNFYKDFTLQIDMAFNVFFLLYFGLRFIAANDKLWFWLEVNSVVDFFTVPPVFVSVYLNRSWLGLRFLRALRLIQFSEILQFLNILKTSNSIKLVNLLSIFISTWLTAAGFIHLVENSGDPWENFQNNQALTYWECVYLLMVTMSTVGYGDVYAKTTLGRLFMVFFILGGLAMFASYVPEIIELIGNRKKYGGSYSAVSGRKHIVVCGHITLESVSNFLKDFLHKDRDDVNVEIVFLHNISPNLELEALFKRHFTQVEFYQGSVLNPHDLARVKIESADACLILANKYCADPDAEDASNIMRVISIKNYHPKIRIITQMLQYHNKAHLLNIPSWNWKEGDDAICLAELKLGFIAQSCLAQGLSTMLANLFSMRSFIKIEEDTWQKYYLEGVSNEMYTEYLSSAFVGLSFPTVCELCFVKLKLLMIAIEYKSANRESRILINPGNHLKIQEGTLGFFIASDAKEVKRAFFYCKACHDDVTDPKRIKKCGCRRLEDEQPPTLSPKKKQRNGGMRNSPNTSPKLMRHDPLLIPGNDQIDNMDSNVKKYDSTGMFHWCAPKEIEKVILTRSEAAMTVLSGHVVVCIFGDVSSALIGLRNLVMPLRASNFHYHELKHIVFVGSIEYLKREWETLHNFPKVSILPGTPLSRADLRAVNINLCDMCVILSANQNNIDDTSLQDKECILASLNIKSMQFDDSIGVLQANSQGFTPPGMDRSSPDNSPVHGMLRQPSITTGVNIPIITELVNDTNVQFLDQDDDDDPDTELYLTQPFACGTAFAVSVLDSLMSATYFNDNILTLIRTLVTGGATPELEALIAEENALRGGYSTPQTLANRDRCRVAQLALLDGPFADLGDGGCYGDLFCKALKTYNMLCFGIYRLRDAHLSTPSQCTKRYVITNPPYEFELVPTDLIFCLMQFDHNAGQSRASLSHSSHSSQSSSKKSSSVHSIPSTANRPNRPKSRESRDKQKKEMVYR
Chain of cbv1+β1 channels (Q16558 whole entry): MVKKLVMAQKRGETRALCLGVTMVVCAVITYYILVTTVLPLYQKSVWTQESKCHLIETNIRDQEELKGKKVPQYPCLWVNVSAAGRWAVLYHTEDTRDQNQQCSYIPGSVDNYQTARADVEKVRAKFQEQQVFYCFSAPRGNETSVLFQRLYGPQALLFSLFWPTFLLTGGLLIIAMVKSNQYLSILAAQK
Excerpt: cRNA Preparation and Injection into Xenopus Oocytes. Full-length cDNA coding for cbv1-subunits was cloned from rat cerebral artery myocytes by PCR and ligated to the PCR-XL-TOPO cloning vector (Invitrogen Corp., Carlsbad, Calif., United States of America) (Jaggar et al., 2005). cDNA coding for cbv1-subunits was cleaved from the cloning vector by BamHI (Invitrogen Corp., Carlsbad, Calif., United States of America) and XhoI (Promega, Madison, Wis., United States of America) and directly inserted into the pOX vector for expression in Xenopus oocytes. pOX-cbv1 was linearized with NotI (Promega, Madison, Wis., United States of America) and transcribed in vitro using T3 polymerase. Beta,-subunit cDNA inserted into the EcoR I/Sal I sites of the pCl-neo expression vector was linearized with NotI and transcribed in vitro using T7 polymerase. Beta4-subunit cDNA inserted into the pOx vector was linearized by NotI and transcribed using T3 polymerase. The mMessage-mMachine kit (Ambion Inc., Austin, Tex., United States of America) was used for transcription. The pOX vector and the cDNA coding for β1-subunits were generous gifts from Aguan Wei (Washington University, Saint Louis, Mo., United States of America) and Maria Garcia (Merck Research Laboratories, Whitehouse Station, N.J., United States of America).
Oocytes were removed from Xenopus laevis and prepared as described (Dopico et al., 1998). cRNA was dissolved in […] at 5 (cbv1) and 15 (β1 or β4) ng/μl; 1-μl aliquots were stored at −70° C. Cbv1 cRNA was injected alone (2.5 ng/μp) or coinjected with either β1 or β4 (7.5 ng/μl) cRNAs, giving molar ratios ≧6:1 (β:α). cRNA injection (23 nl/oocyte) was conducted using a modified micropipette (Drummond Scientific Co., Broomall, Pa., United States of America). The interval between injection and patch-clamp recordings was 48-72 h.
Electrophysiology. Oocytes were prepared for patch-clamp recordings as described (Dopico et al., 1998). Single-channel and macroscopic currents were recorded from inside-out (I/O) or outside-out (O/O) patches. For experiments with oocytes, both bath and electrode solutions contained (mM) 135 K^+ gluconate, 5 EGTA, 1 MgCl2, 15 HEPES, 10 glucose, pH 7.35. For experiments with myocytes, KCl substituted for K^+ gluconate. In all experiments, free Ca^2+ in solution was adjusted to the desired value by adding CaCl2. In most studies, free Ca^2+ in electrode solution=10 μM. In O/O studies with 17β-estradiol, however, free Ca^2+ in the electrode solution=0.3 μM. Nominal free Ca^2+ was calculated with MaxChelator Sliders (C. Patton, Stanford University, California, United States of America) and validated experimentally using Ca^2+-selective electrodes (Corning Incorporated Science Products Division, Corning, N.Y., United States of America).
Patch-recording electrodes were made as described (Dopico et al., 1998). Immediately before recording, the tip of each electrode was fire-polished on a microforge WPI MF-200 (World Precision Instruments, Inc., Sarasota, Fla., United States of America) to give resistances of 5-9 MD when filled with solution. An agar bridge with gluconate or Cl^− as the main anion (for oocyte and myocyte experiments, respectively) was used as ground electrode. After excision from the cell, the membrane patch was exposed to a stream of bath solution containing each agent at final concentration. Solutions were applied onto the patches using a pressurized system DAD12 (ALA Scientific Instruments, New York, N.Y., United States of America) via a micropipette tip with an internal diameter of 100 μm. Experiments were carried out at room temperature (21° C.).
(§1) Currents were recorded using an EPC8 amplifier (HEKA Electronics, Lambrecht/Pfalz, Germany) at 1 kHz using a low-pass, eight-pole Bessel filter 902LPF (Frequency Devices, Haverhill, Mass., United States of America). […]

[1] = target: T1, homomeric cbv1 (rslo1) channels (Rattus norvegicus, UniProt Q62976); assay: Inside-out patch-clamp of homomeric cbv1 channels expressed in Xenopus oocytes; type: cell-based; settings: I/O patches, Ca2+i 10 μM, ±20 mV, read-out: Average NPo (% of control)
T1 construct: Full-length cDNA coding for cbv1-subunits was cloned from rat cerebral artery myocytes by PCR; expressed in transfected cells; host or cells: Xenopus laevis oocytes (cRNA injection)
T1 sequence (Q62976 1-1148 isoform Q62976-2): as the sequence (Q62976 1-1148 isoform Q62976-2) above
Excerpt: cRNA Preparation and Injection into Xenopus Oocytes. Full-length cDNA coding for cbv1-subunits was cloned from rat cerebral artery myocytes by PCR and ligated to the PCR-XL-TOPO cloning vector (Invitrogen Corp., Carlsbad, Calif., United States of America) (Jaggar et al., 2005). cDNA coding for cbv1-subunits was cleaved from the cloning vector by BamHI (Invitrogen Corp., Carlsbad, Calif., United States of America) and XhoI (Promega, Madison, Wis., United States of America) and directly inserted into the pOX vector for expression in Xenopus oocytes. pOX-cbv1 was linearized with NotI (Promega, Madison, Wis., United States of America) and transcribed in vitro using T3 polymerase. […]
Electrophysiology. […] Single-channel and macroscopic currents were recorded from inside-out (I/O) or outside-out (O/O) patches. […] Nominal free Ca^2+ was calculated with MaxChelator Sliders (C. Patton, Stanford University, California, United States of America) and validated experimentally using Ca^2+-selective electrodes (Corning Incorporated Science Products Division, Corning, N.Y., United States of America). […]
as §1

C[C@H](CCC(=O)O)[C@H]1CC[C@H]2[C@@H]3CC[C@@H]4C[C@H](O)CC[C@]4(C)[C@H]3CC[C@]12C [LC, 5β-cholanic acid 3α-ol] was tested, and the “LC-activation (as a percentage of NPo in vehicle)” value (cbv1+β1 channels; 150 μM, 0.1 μM Ca2+) was 139.9±32.9%, the Emax at 150 µM (cbv1+β1 channels; 150 μM, 1 μM Ca2+, read-out: LC-activation (as a percentage of NPo in vehicle), maximal effect) was 244 ± 58.9% and the Percent of control at 150 µM (cbv1+β1 channels; 150 μM, 30 μM Ca2+i, read-out: NPo in LC (% of control)) was 172 ± 9.5%. The “Decrease in mean close time” value (cbv1+β1 channels; 150 μM, FIG. 4B) was −60%, the Percent of control at 150 µM (cbv1+β1 channels; 150 μM, patches with N=1, read-out: Channel mean closed time (% of control)) was 41% and the Percent of control at 150 µM (cbv1+β1 channels; 150 μM, patches with N=1, read-out: Channel mean open time (% of control)) was 137%. The “Increase in Po” value (cbv1+β1 channels; 150 μM, single-channel I/O patch (N=1), +20 mV, Ca2+i 10 μM) was 320%, the Emax (cbv1+β1 channels; I/O patches, Ca2+i 10 μM, read-out: NPo at Emax (% of control)) was 290 ± 45% and the EC50 (cbv1+β1 channels; I/O patches, Ca2+i 10 μM, ±20 mV, read-out: EC50 for increase in NPo) was 43.5 µM and 46 µM. The remaining activity at 150 µM [1] was 112 ± 13%.
